Patent publication US8637510B2, “Morpholinothiazoles as alpha 7 positive allosteric modulators” (Janssen Pharmaceutica NV, priority 2009, dated 2014)

Experiments:
human alpha 7-wt nAChR = biological target: T1, human alpha 7-wt nAChR (Homo sapiens, UniProt P36544); assay: Ca2+ flux imaging (FDSS) (Protocol B); assay type: cell-based; settings: for EC50: potentiation of 100 μM choline, compounds 0.01 μM to 30 μM, read-out: a7-PAM-G_[33]_pEC50 pEC50 (converted); for Emax: read-out: a7-PAM-G_[33]_Eff_Curve_FI % Efficacy
T1 construct: expressed in transfected cells
How it was run: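 PAM activity was measured as FDSS calcium fluorescence in α7-wt nAChR cells loaded with 2 μM Fluo-4AM, with compounds at 0.01–30 μM added alongside or 10 min ahead of sub-maximal 100 μM choline. Peak responses were normalised to choline-only efficacy, and EC50 was taken at half-maximal effect.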

[1] = efficacy of 100 μM choline defined as 100% in the absence of a PAM

T1 sequence (P36544 23-502): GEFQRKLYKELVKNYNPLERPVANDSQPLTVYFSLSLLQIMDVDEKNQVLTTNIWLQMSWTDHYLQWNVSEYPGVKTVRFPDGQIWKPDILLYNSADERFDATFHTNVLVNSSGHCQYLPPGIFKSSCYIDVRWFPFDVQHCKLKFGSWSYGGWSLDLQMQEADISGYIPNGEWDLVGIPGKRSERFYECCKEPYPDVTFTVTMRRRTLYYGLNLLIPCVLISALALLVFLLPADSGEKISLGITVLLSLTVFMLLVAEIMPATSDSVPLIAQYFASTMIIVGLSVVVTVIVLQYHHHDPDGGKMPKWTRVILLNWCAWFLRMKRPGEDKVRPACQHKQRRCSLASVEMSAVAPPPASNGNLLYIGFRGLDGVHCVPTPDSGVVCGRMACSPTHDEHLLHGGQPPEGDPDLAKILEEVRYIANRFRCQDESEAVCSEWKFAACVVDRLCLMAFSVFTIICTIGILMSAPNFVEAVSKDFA

SMILES	EC50 (human alpha 7-wt nAChR)	melting point	Emax (human alpha 7-wt nAChR; [1])	a7-PAM-G_[33]_Eff_Curve_FI % Efficacy (human alpha 7-wt nAChR; [1])
Cc1cc(-c2sc(N3CC(C)OC(C)C3)nc2CNC(=O)c2ccc(Cl)cc2)cc(C)n1 (racemic) [Compound 58, 4-chloro-N-[[2-[2,6-dimethyl-4-morpholinyl]-5-(2,6-dimethyl-4-pyridinyl)-4-thiazolyl]methyl]-benzamide]	295 nM	184 °C		
Cc1cc(-c2sc(N3CC(C)OC(C)C3)nc2CNC(=O)c2cc(C)on2)cc(C)n1 (racemic) [Compound 59, N-[[2-[2,6-dimethyl-4-morpholinyl]-5-(2,6-dimethyl-4-pyridinyl)-4-thiazolyl]methyl]-5-methyl-3-isoxazolecarboxamide]	1620 nM	166 °C	938%	
Cc1cc(-c2sc(N3CC(C)OC(C(F)(F)F)C3)nc2CNC(=O)CC2CC2)cc(C)n1 (racemic) [Compound 205, N-[[5-(2,6-dimethyl-4-pyridinyl)-2-[2-methyl-6-(trifluoromethyl)-4-morpholinyl]-4-thiazolyl]methyl]-cyclopropaneacetamide]	38 nM	148 °C		883%
Cc1cc(-c2sc(N3CCOC(C)C3)nc2CNC(=O)c2ccc(F)cc2C)cc(C)n1 (single isomer, unassigned) [Compound 70, N-[[5-(2,6-dimethyl-4-pyridinyl)-2-[(2S*)-2-methyl-4-morpholinyl]-4-thiazolyl]methyl]-4-fluoro-2-methyl-benzamide]	81.3 nM	185 °C		
Cc1cc(C(=O)NCc2nc(N3CCOC(C)C3)sc2-c2cc(C)nc(C)c2)on1 (single isomer, unassigned) [Compound 72, N-[[5-(2,6-dimethyl-4-pyridinyl)-2-[(2S*)-2-methyl-4-morpholinyl]-4-thiazolyl]methyl]-3-methyl-5-isoxazolecarboxamide]	2000 nM	138 °C		
Cc1cc(-c2sc(N3CCOC(C)C3)nc2CNC(=O)c2cc(C)on2)cc(C)n1 (single isomer, unassigned) [Compound 74, N-[[5-(2,6-dimethyl-4-pyridinyl)-2-[(2R*)-2-methyl-4-morpholinyl]-4-thiazolyl]methyl]-5-methyl-3-isoxazolecarboxamide]	2000 nM	167 °C		
Cc1cc(-c2sc(N3CCOC(C)C3)nc2CNC(=O)c2ccc(F)cc2C)cc(C)n1 (single isomer, unassigned) [Compound 77, N-[[5-(2,6-dimethyl-4-pyridinyl)-2-[(2R*)-2-methyl-4-morpholinyl]-4-thiazolyl]methyl]-4-fluoro-2-methyl-benzamide]	107 nM	188 °C	809%	
Cc1cc(-c2sc(N3CCOC(C)C3)nc2CNC(=O)c2cc(C)on2)cc(C)n1 (single isomer, unassigned) [Compound 79, N-[[5-(2,6-dimethyl-4-pyridinyl)-2-[(2S*)-2-methyl-4-morpholinyl)-4-thiazolyl]methyl]-5-methyl-3-isoxazolecarboxamide]	1660 nM	166 °C		
Cc1cc(-c2sc(N3CC(C)OC(C(F)(F)F)C3)nc2CNC(=O)CC2CC2)cc(C)n1 (single isomer, unassigned) [Compound 133, N-[[5-(2,6-dimethyl-4-pyridinyl)-2-[2-methyl-6-(trifluoromethyl)-4-morpholinyl]-4-thiazolyl]methyl]-cyclopropaneacetamide]	115 nM	156 °C		
Cc1cc(-c2sc(N3CC(C)OC(C(F)(F)F)C3)nc2CNC(=O)CC2CC2)cc(C)n1 (single isomer, unassigned) [Compound 206, N-[[5-(2,6-dimethyl-4-pyridinyl)-2-[2-methyl-6-(trifluoromethyl)-4-morpholinyl]-4-thiazolyl]methyl]-cyclopropaneacetamide]	43.7 nM	150 °C	985%	
Cc1cc(-c2sc(N3C[C@@H](C)O[C@@H](C)C3)nc2CNC(=O)c2ccc(Cl)c(Cl)c2)cc(C)n1 [Compound 35, 3,4-dichloro-N-[[2-[(2R,6S)-2,6-dimethyl-4-morpholinyl]-5-(2,6-dimethyl-4-pyridinyl)-4-thiazolyl]methyl]-benzamide]	132 nM	185 °C	599%	
Cc1cc(-c2sc(N3C[C@@H](C)O[C@@H](C)C3)nc2CNC(=O)c2ccc(F)c(F)c2)cc(C)n1 [Compound 36, N-[[2-[(2R,6S)-2,6-dimethyl-4-morpholinyl]-5-(2,6-dimethyl-4-pyridinyl)-4-thiazolyl]methyl]-3,4-difluoro-benzamide]	74.1 nM	189 °C	869%	
COCC(=O)NCc1nc(N2C[C@@H](C)O[C@@H](C)C2)sc1-c1cc(C)nc(C)c1 [Compound 37, N-[[2-[(2R,6S)-2,6-dimethyl-4-morpholinyl]-5-(2,6-dimethyl-4-pyridinyl)-4-thiazolyl]methyl]-2-methoxy-acetamide]		150 °C	293%	
Cc1cc(-c2sc(N3C[C@@H](C)O[C@@H](C)C3)nc2CNC(=O)c2ccc(F)c(F)c2C)cc(C)n1 [Compound 38, N-[[2-[(2R,6S)-2,6-dimethyl-4-morpholinyl]-5-(2,6-dimethyl-4-pyridinyl)-4-thiazolyl]methyl]-3,4-difluoro-2-methyl-benzamide]	5.5 nM	187 °C		
CCCC(=O)NCc1nc(N2C[C@@H](C)O[C@@H](C)C2)sc1-c1cc(C)nc(C)c1 [Compound 41, N-[[2-[(2R,6S)-2,6-dimethyl-4-morpholinyl]-5-(2,6-dimethyl-4-pyridinyl)-4-thiazolyl]methyl]-butanamide]	102 nM	155 °C	657%	
Cc1cc(-c2sc(N3C[C@@H](C)O[C@@H](C)C3)nc2CNC(=O)CC(C)C)cc(C)n1 [Compound 42, N-[[2-[(2R,6S)-2,6-dimethyl-4-morpholinyl]-5-(2,6-dimethyl-4-pyridinyl)-4-thiazolyl]methyl]-3-methyl-butanamide]	10.5 nM	184 °C	827%	
Cc1cc(-c2sc(N3C[C@@H](C)O[C@@H](C)C3)nc2CNC(=O)C2C(C)(C)C2(C)C)cc(C)n1 [Compound 43, N-[[2-[(2R,6S)-2,6-dimethyl-4-morpholinyl]-5-(2,6-dimethyl-4-pyridinyl)-4-thiazolyl]methyl]-2,2,3,3-tetramethyl-cyclopropanecarboxamide]	60.3 nM	197 °C	663%	
Cc1cc(-c2sc(N3C[C@@H](C)O[C@@H](C)C3)nc2CNC(=O)c2cccc(C(F)(F)F)c2)cc(C)n1 [Compound 44, N-[[2-[(2R,6S)-2,6-dimethyl-4-morpholinyl]-5-(2,6-dimethyl-4-pyridinyl)-4-thiazolyl]methyl]-3-(trifluoromethyl)-benzamide]	282 nM	180 °C	607%	
Cc1cc(-c2sc(N3C[C@@H](C)O[C@@H](C)C3)nc2CNC(=O)c2ccc3c(c2)OC(F)(F)O3)cc(C)n1 [Compound 45, N-[[2-[(2R,6S)-2,6-dimethyl-4-morpholinyl]-5-(2,6-dimethyl-4-pyridinyl)-4-thiazolyl]methyl]-2,2-difluoro-1,3-benzodioxole-5-carboxamide]	355 nM	175 °C	566%	
Cc1cc(-c2sc(N3C[C@@H](C)O[C@@H](C)C3)nc2CNC(=O)c2cccc3c2OC(F)(F)O3)cc(C)n1 [Compound 46, N-[[2-[(2R,6S)-2,6-dimethyl-4-morpholinyl]-5-(2,6-dimethyl-4-pyridinyl)-4-thiazolyl]methyl]-2,2-difluoro-1,3-benzodioxole-4-carboxamide]	331 nM	185 °C	610%	
Cc1cc(-c2sc(N3C[C@@H](C)O[C@@H](C)C3)nc2CNC(=O)CC2CCC2)cc(C)n1 [Compound 49, N-[[2-[(2R,6S)-2,6-dimethyl-4-morpholinyl]-5-(2,6-dimethyl-4-pyridinyl)-4-thiazolyl]methyl]-cyclobutaneacetamide]	26.3 nM	153 °C		
Cc1cc(-c2sc(N3C[C@@H](C)O[C@@H](C)C3)nc2CNC(=O)CCC2CC2)cc(C)n1 [Compound 50, N-[[2-[(2R,6S)-2,6-dimethyl-4-morpholinyl]-5-(2,6-dimethyl-4-pyridinyl)-4-thiazolyl]methyl]-cyclopropanepropanamide]	66.1 nM	168 °C	953%	
Cc1cc(-c2sc(N3CCOCC3)nc2CNC(=O)c2cc(C)on2)cc(C)n1 [Compound 63, N-[[5-(2,6-dimethyl-4-pyridinyl)-2-(4-morpholinyl)-4-thiazolyl]methyl]-5-methyl-3-isoxazolecarboxamide]	1820 nM	197 °C	969%	
Cc1cc(-c2sc(N3CCOCC3)nc2CNC(=O)CC2CC2)cc(C)n1 [Compound 64, N-[[5-(2,6-dimethyl-4-pyridinyl)-2-(4-morpholinyl)-4-thiazolyl]methyl]-cyclopropaneacetamide]		188 °C	980%	
Cc1cc(-c2sc(N3CCOCC3)nc2CNC(=O)C2CCC2)cc(C)n1 [Compound 65, N-[[5-(2,6-dimethyl-4-pyridinyl)-2-(4-morpholinyl)-4-thiazolyl]methyl]-cyclobutanecarboxamide]	3240 nM	188 °C		
Cc1cc(-c2sc(N3CCOCC3)nc2CNC(=O)c2ccc(F)cc2)cc(C)n1 [Compound 66, N-[[5-(2,6-dimethyl-4-pyridinyl)-2-(4-morpholinyl)-4-thiazolyl]methyl]-4-fluoro-benzamide]	1200 nM	210 °C		
